The results in this text go back to PubChem BioAssay (NCI).

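Growth conditions: 96-well plates. Treatment: test compound, 48 hours, 5 concentrations. Analysis: linear interpolation between bracketing concentrations; unreached endpoints set to highest concentration. Abbreviation: GI50, concentration required for 50% inhibition of growth. The concentration for full growth arrest is given as TGI.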

Test systems include CAKI-1 renal; DLD-1 colon; DMS 273 small cell lung; HOP-18 NSCLC; KM20L2 colon; LXFL 529 NSCLC; M19-MEL melanoma; NCI-H23 lung; SF-539 CNS; SNB-78 CNS; SW-620 colon; DMS 114 small cell lung; XF 498 CNS; P388/ADR leukemia; SN12K1 renal; RXF-631 renal.
Holding throughout (experiment): NCI tumour cell line growth inhibition, 48 h

Regarding `O=C(c1ccc(Cl)cc1)N(C(=S)N1CCN(c2ccccc2)CC1)c1ccccc1`, the TGI with CAKI-1 renal, with DLD-1 colon, in the assay with DMS 273 small cell lung, in the assay with HOP-18 NSCLC, in the assay with KM20L2 colon and in the assay on LXFL 529 NSCLC was greater than 100 µM throughout. Also, the TGI in the assay with M19-MEL melanoma, with NCI-H23 lung, in the assay with SF-539 CNS, in the assay with SNB-78 CNS and with SW-620 colon was greater than 100 µM in each case.

Take `CCCC(=O)N[C@@H](Cc1cc(I)c(O)c(I)c1)C(=O)NCCCNCCCCNCCCNC(=O)[C@@H](N)CCCN=C(N)N`: the TGI with DMS 114 small cell lung, in the assay with DMS 273 small cell lung, in the assay with KM20L2 colon, in the assay with LXFL 529 NSCLC, in the assay on M19-MEL melanoma and in the assay with NCI-H23 lung was greater than 100 µM throughout. For the same molecule, the TGI in the assay with SF-539 CNS, in the assay with SW-620 colon and with XF 498 CNS was greater than 100 µM throughout.

As for `CCCN(CCC)C(=O)Cc1c2n(c3ccccc13)Cc1ccccc1-2`, the TGI in the assay with CAKI-1 renal, with DLD-1 colon, in the assay with DMS 114 small cell lung, with DMS 273 small cell lung, in the assay on HOP-18 NSCLC and with KM20L2 colon was greater than 100 µM each time. In addition, the TGI with LXFL 529 NSCLC, with M19-MEL melanoma, with NCI-H23 lung, in the assay with SF-539 CNS, in the assay on SNB-78 CNS and in the assay with SW-620 colon was greater than 100 µM each time. This molecule came in with a TGI in the assay with XF 498 CNS greater than 100 µM.

Turning to `COC(=O)c1cc(C)ccc1CC(Cc1ccccc1C)C(=O)OC` (configuration not stated), the TGI in the assay on CAKI-1 renal, in the assay with NCI-H23 lung, in the assay on SF-539 CNS and in the assay with SW-620 colon was greater than 100 µM in each case.

For `O=C(O)c1cc2c(cc1S(=O)(=O)O)C1C(C3C2C2(Cl)C(Cl)=C(Cl)C3(Cl)C2(Cl)Cl)C2(Cl)C(Cl)=C(Cl)C1(Cl)C2(Cl)Cl` (configuration not stated), the TGI in the assay on CAKI-1 renal is greater than 100 µM; in the assay with NCI-H23 lung, 73.3 µM; with SF-539 CNS it was 60.3 µM; with SW-620 colon, greater than 100 µM.

With `Cc1ccc(NNc2cc(=O)[nH]c(=O)[nH]2)cc1Cl`, the TGI in the assay on CAKI-1 renal came to 28.4 µM; in the assay with NCI-H23 lung it was 31.1 µM; in the assay on SF-539 CNS it was 69.4 µM; with SW-620 colon it was 28.2 µM.

On to `COc1ccc2c(-c3ccc(O)cc3)c(Oc3ccccc3)c(=O)oc2c1`, for which the TGI in the assay on CAKI-1 renal, with NCI-H23 lung, with SF-539 CNS and with SW-620 colon was greater than 100 µM throughout.

For `C=C1CC(CNc2cc(Cl)nc(N)n2)C1`, the TGI with CAKI-1 renal, in the assay on NCI-H23 lung, in the assay with SF-539 CNS and in the assay on SW-620 colon was greater than 100 µM throughout.

As for `O=C1NC(N/N=C/C(O)C(O)C(O)C(O)CO)=N/C1=C\c1cccs1` (configuration not stated), the TGI in the assay with CAKI-1 renal, in the assay with NCI-H23 lung, in the assay with SF-539 CNS and in the assay with SW-620 colon was greater than 100 µM throughout.

For the molecule `O/N=C1\CC2(N3CCOCC3)CCC1(Cc1ccccc1)CC2`, the TGI is greater than 100 µM with CAKI-1 renal, greater than 100 µM in the assay with NCI-H23 lung, 58.3 µM in the assay on SF-539 CNS and greater than 100 µM in the assay with SW-620 colon.

In the case of `CCOC(=O)c1ccc(Nc2nc3ccc(C(F)(F)F)cc3nc2-c2ccccc2)cc1`, the TGI in the assay on CAKI-1 renal, in the assay with NCI-H23 lung, in the assay on SF-539 CNS and in the assay with SW-620 colon was greater than 100 µM in each case.

`C=CCC1(O)c2cccc(O)c2C(=O)c2cccc(O)c21` (configuration not stated): the TGI in the assay on CAKI-1 renal is 68.2 µM; with NCI-H23 lung it was 31.7 µM; in the assay with SF-539 CNS it was greater than 100 µM; in the assay with SW-620 colon, greater than 100 µM.

Take `CCOC(=O)/C=C/[C@H](O[Si](c1ccccc1)(c1ccccc1)c1ccccc1)C(C)(C)C`: the TGI with CAKI-1 renal, in the assay with NCI-H23 lung, in the assay on SF-539 CNS and in the assay on SW-620 colon was greater than 31.6 µM each time.

Consider `C=CC1(CBr)CCC(C(C)(C)Br)O1` (configuration not stated), for which the TGI in the assay with CAKI-1 renal worked out at 16.5 µM; with NCI-H23 lung, 19.9 µM; in the assay on SF-539 CNS it was 30.8 µM; in the assay on SW-620 colon, 10.5 µM.

In the case of `CC(C)(N=NC(C)(C)C1=NCCN1)C1=NCCN1`, the TGI in the assay on CAKI-1 renal, in the assay on NCI-H23 lung, in the assay on SF-539 CNS and in the assay on SW-620 colon was greater than 100 µM each time.

In the case of `C[C@@H]1CCN(C(=O)CC#N)C[C@@H]1N(C)c1ncnc2[nH]ccc12`, the GI50 was 42.1 µM in the assay on CAKI-1 renal, greater than 100 µM with NCI-H23 lung, 39.3 µM in the assay with SF-539 CNS and greater than 100 µM in the assay with SW-620 colon. The TGI in the assay on CAKI-1 renal, with NCI-H23 lung, with SF-539 CNS and with SW-620 colon was greater than 100 µM each time.

Regarding `CCOC(=O)NNC1(SC)NC(=O)c2c(cc(Cl)oc2=O)O1` (configuration not stated), the TGI in the assay with CAKI-1 renal is 8.02 µM; in the assay on NCI-H23 lung, 13.1 µM; with SF-539 CNS, 4.57 µM; with SW-620 colon, greater than 37 µM.

In the case of `C/C=C/OC1C(C2COC(C)(C)O2)OC2OC(C)(C)OC21` (configuration not stated), the TGI in the assay with CAKI-1 renal, in the assay on NCI-H23 lung, in the assay on SF-539 CNS and in the assay with SW-620 colon was greater than 100 µM each time.

Regarding `CNC=O`, the TGI with CAKI-1 renal, in the assay on DLD-1 colon, in the assay with DMS 114 small cell lung, in the assay with DMS 273 small cell lung, in the assay on HOP-18 NSCLC and with KM20L2 colon was greater than 10000 µM each time. The TGI with M19-MEL melanoma, in the assay with NCI-H23 lung, in the assay on P388/ADR leukemia, with SF-539 CNS, in the assay on SN12K1 renal and in the assay with SNB-78 CNS was greater than 10000 µM throughout. Further, the TGI in the assay with SW-620 colon and with XF 498 CNS was greater than 10000 µM each time.

For the molecule `CC(=O)NC1CCC(NC(=O)OC(C)(C)C)C(NC(=O)OC(C)(C)C)C1` (configuration not stated), the TGI in the assay on CAKI-1 renal, in the assay on NCI-H23 lung, with SF-539 CNS and in the assay with SW-620 colon was greater than 100 µM throughout.

For `NNC(=O)CCCCCCCC(=O)O`, the TGI with CAKI-1 renal, in the assay on NCI-H23 lung, with SF-539 CNS and in the assay on SW-620 colon was greater than 100 µM each time.

Regarding `Cc1ccc(S(=O)(=O)OCC23CCC(C4CC42)C2CC23)cc1` (configuration not stated), the TGI with CAKI-1 renal, in the assay with DLD-1 colon, in the assay with DMS 114 small cell lung, in the assay with DMS 273 small cell lung, in the assay on HOP-18 NSCLC and in the assay on KM20L2 colon was greater than 100 µM throughout. In addition, the TGI in the assay on LXFL 529 NSCLC, with M19-MEL melanoma, with NCI-H23 lung, in the assay with RXF-631 renal and in the assay with SW-620 colon was greater than 100 µM throughout.

As to `Cc1ccnc2c1c(=O)c1ccccc1n2C`, the TGI was 51.4 µM in the assay with CAKI-1 renal, greater than 100 µM in the assay on NCI-H23 lung, greater than 100 µM in the assay with SF-539 CNS and greater than 100 µM with SW-620 colon.

As to `O=S(=O)(O)Nc1ccc(-c2nc3ccccc3s2)cc1Cl`, the TGI in the assay with CAKI-1 renal, in the assay on NCI-H23 lung, in the assay on SF-539 CNS and in the assay with SW-620 colon was greater than 100 µM in each case.

For `CSCCCNC(=O)c1csc([C@@H](CSC)NC(=O)CCNC(=O)[C@@H](NC(=O)OCC(Br)(Br)Br)C(C)O)n1` (some centres not stated), the TGI in the assay on CAKI-1 renal, in the assay on NCI-H23 lung, in the assay with SF-539 CNS and with SW-620 colon was greater than 100 µM in each case.
